The values below come from patent publication US10104891B2 (priority 2014, dated 2018).

Holding throughout (format): in vivo
Assay [1] relates to Plasmopara viticola. Nature of the assay: Test 3: control effect against grape downy mildew. The note with it: control value vs untreated section. On the procedure: (§1) A 10% wettable powder created according to the Pharmaceutical Formulation Example 1 was diluted with a Tween20 solution prepared to a concentration of 1/5000, then the compound of formula [1] was prepared to a concentration of 4 ppm. Further, the compound of formula [1] in Test 4 was adjusted to a concentration of 1,000 ppm.
<Test 3 Test of Control Effect Against Grape Downy Mildew>
(§2) Test suspension was applied to grape seedling (species: Neomuscat) in an amount of 20 ml per seedling. One day after application, zoospore suspension of Plasmopara viticola adjusted to a concentration of 1.0×10^4 units/ml was misted/inoculated, and the seedlings were incubated in a moist chamber adjusted to 22° C. for 16 hr. Then, the onset of the disease was induced in the chamber, and the lesion area rate on the leaves 5 days after inoculation was investigated to compute the control value using the formula below. control value={1−onset area rate of the leaves that were applied the test agent/onset area rate of untreated leaves}×100 Computational formula of the control value: […]

Assay [2] concerns Pseudoperonospora cubensis. Nature of the assay: Test 2: control effect against cucumber downy mildew. The note with it: control value vs untreated section. On the procedure: as §1
<Test 2 Test of Control Effect Against Cucumber Downy Mildew>
as §2, with “cucumber at the 2 leaf stage” for “grape seedling”, “Sagami hanjiro)” for “Neomuscat)”, “Pseudoperonospora cubensis” for “Plasmopara viticola”

Assay [3] relates to Phytophthora infestans. As to the kind of experiment: whole plant or invertebrate. The note with it: for control value (Test 1): tomato late blight, control value vs untreated section.

As for `CS(=O)(=O)Oc1cccc2c1COC(c1csc(C3CCN(C(=O)Cn4nc(C(F)(F)F)cc4C(F)(F)F)CC3)n1)OC2` (stereo not drawn) [Compound 1-42, 4-[4-(6-methylsulfonyloxy-1,5-dihydro-3H-2,4-benzodioxepin-3-yl)-2-thiazolyl]-1-[2-[3,5-bis(trifluoromethyl)-1H-pyrazole-1-yl]acetyl]piperidine], the pest or weed control at 4 µg/mL in assay [1] (Plasmopara viticola, 120 h) was 100%; in assay [2] (Pseudoperonospora cubensis, 120 h), 100%; in assay [3] (Phytophthora infestans, in Solanum lycopersicum, 96 h, read-out: control value (Test 1)) it was 100%.
Turning to `Cc1cc(C(F)(F)F)nn1CC(=O)N1CCC(c2nc(C3OCc4cccc(NS(C)(=O)=O)c4CO3)cs2)CC1` (stereo not drawn) [Compound 1-43], in assay [1], the “control value (Test 3)” value was found to be 100. In assay [2], the “control value (Test 2)” value is on record as 100. The “control value (Test 1)” value in assay [3] turned out to be 80.
On to `COc1ccc([N+](=O)[O-])c2c1COC(c1csc(C3CCN(C(=O)Cn4nc(C(F)(F)F)cc4C)CC3)n1)OC2` (stereo not drawn) [Compound 1-46], for which, in assay [1], the “control value (Test 3)” value is 100. Further, in assay [2], the “control value (Test 2)” value came out at 100. Moreover, the “control value (Test 1)” value in assay [3] was determined as 100.
As for `Cc1cc(C(F)(F)F)nn1CC(=O)N1CCC(c2nc(C3OCc4cccc(OS(=O)(=O)c5ccccc5)c4CO3)cs2)CC1` (stereo not drawn) [Compound 1-48], in assay [1], the “control value (Test 3)” value worked out at 100. Also, the “control value (Test 2)” value in assay [2] turned out to be 100. In assay [3], the “control value (Test 1)” value is reported as 100.
Take `Cc1cc(C(F)(F)F)nn1CC(=O)N1CCC(c2nc(C3OCc4cccc(CO)c4CO3)cs2)CC1` (stereo not drawn) [Compound 1-52]: the “control value (Test 3)” value in assay [1] was 100. Further, the “control value (Test 2)” value in assay [2] was 100. In assay [3], the “control value (Test 1)” value is recorded as 100.
With `CC(C)S(=O)(=O)Oc1cccc2c1COC(c1csc(C3CCN(C(=O)Cn4nc(C(F)F)cc4C(F)F)CC3)n1)OC2` (stereo not drawn) [Compound 1-53], the “control value (Test 3)” value in assay [1] was 100. The “control value (Test 2)” value in assay [2] was 100. The “control value (Test 1)” value in assay [3] amounted to 100.
Turning to `CCCCS(=O)(=O)Oc1cccc2c1COC(c1csc(C3CCN(C(=O)Cn4nc(C(F)F)cc4C(F)F)CC3)n1)OC2` (stereo not drawn) [Compound 1-54], the “control value (Test 3)” value in assay [1] is listed as 100. The “control value (Test 2)” value in assay [2] worked out at 100. Also, the “control value (Test 1)” value in assay [3] is 100.
Take `O=C(Cn1nc(C(F)F)cc1C(F)F)N1CCC(c2nc(C3OCc4c(F)c(F)c(F)c(F)c4CO3)cs2)CC1` [Compound 1-55]: the “control value (Test 3)” value in assay [1] came out at 100. Besides, in assay [2], the “control value (Test 2)” value is listed as 100. Also, in assay [3], the “control value (Test 1)” value worked out at 100.
On to `Cc1cc(C(F)(F)F)nn1CC(=O)N1CCC(c2nc(C3OCc4cccc(-c5ccccc5)c4CO3)cs2)CC1` (stereo not drawn) [Compound 1-56], for which the “control value (Test 3)” value in assay [1] was 100. Moreover, the “control value (Test 2)” value in assay [2] is reported as 100. For the same molecule, the “control value (Test 1)” value in assay [3] was 90.
Consider `O=C(Cn1nc(C(F)F)cc1C(F)F)N1CCC(c2nc(C3OCc4cccc(Cl)c4CO3)cs2)CC1` (stereo not drawn) [Compound 1-58], for which, in assay [1], the “control value (Test 3)” value worked out at 100. Further, the “control value (Test 2)” value in assay [2] turned out to be 100. Moreover, in assay [3], the “control value (Test 1)” value is reported as 100.
Consider `CCCCCCCCS(=O)(=O)Oc1cccc2c1COC(c1csc(C3CCN(C(=O)Cn4nc(C(F)F)cc4C(F)F)CC3)n1)OC2` (stereo not drawn) [Compound 1-59], for which the “control value (Test 3)” value in assay [1] is listed as 100. For the same molecule, in assay [2], the “control value (Test 2)” value came to 100. Moreover, the “control value (Test 1)” value in assay [3] is on record as 100.
Consider `O=C(Cn1nc(C(F)F)cc1C(F)F)N1CCC(c2nc(C3OCc4ccc(C(F)(F)F)cc4CO3)cs2)CC1` (stereo not drawn) [Compound 1-60], for which the “control value (Test 3)” value in assay [1] was 100. Also, in assay [2], the “control value (Test 2)” value amounted to 100. In assay [3], the “control value (Test 1)” value was 100.
In the case of `O=C(Cn1nc(C(F)F)cc1C(F)F)N1CCC(c2nc(C3OCc4cc5c(cc4CO3)CCC5)cs2)CC1` [Compound 1-61, 4-[4-(1,5,7,8,9-pentahydro-3H-2,4-indenodioxepin-3-yl)-2-thiazolyl]-1-[2-[3,5-bis(difluoromethyl)-1H-pyrazole-1-yl]acetyl]piperidine], in assay [1], the “control value (Test 3)” value was 100. The “control value (Test 2)” value in assay [2] is 100. In addition, the “control value (Test 1)” value in assay [3] was 100.
Turning to `CON=Cc1cccc2c1COC(c1csc(C3CCN(C(=O)Cn4nc(C(F)(F)F)cc4C)CC3)n1)OC2` (stereo not drawn) [Compound 1-63], in assay [1], the “control value (Test 3)” value is 100. Also, in assay [2], the “control value (Test 2)” value is given as 100. In addition, the “control value (Test 1)” value in assay [3] amounted to 100.
As for `Cc1cc(OS(C)(=O)=O)c2c(c1C)COC(c1csc(C3CCN(C(=O)Cn4nc(C(F)(F)F)cc4C)CC3)n1)OC2` (stereo not drawn) [Compound 1-64], the “control value (Test 3)” value in assay [1] is given as 100. In assay [2], the “control value (Test 2)” value is on record as 100. In assay [3], the “control value (Test 1)” value is recorded as 100.
In the case of `Cc1cc(C(F)(F)F)nn1CC(=O)N1CCC(c2nc(C3OCc4c(Cl)ccc(OS(C)(=O)=O)c4CO3)cs2)CC1` (stereo not drawn) [Compound 1-65], the “control value (Test 3)” value in assay [1] was 100. Further, in assay [2], the “control value (Test 2)” value was 100. In assay [3], the “control value (Test 1)” value was determined as 100.
`Cc1cc(C(F)(F)F)nn1CC(=O)N1CCC(c2nc(C3OCc4c(Br)ccc(OS(C)(=O)=O)c4CO3)cs2)CC1` (stereo not drawn) [Compound 1-66]: in assay [1], the “control value (Test 3)” value was 100. Further, the “control value (Test 2)” value in assay [2] is recorded as 100. Also, the “control value (Test 1)” value in assay [3] came out at 100.
On to `CC(C)S(=O)(=O)Oc1cccc2c1COC(c1csc(C3CCN(C(=O)Cn4nc(C(F)(F)F)cc4C(F)(F)F)CC3)n1)OC2` (stereo not drawn) [Compound 1-67], for which, in assay [1], the “control value (Test 3)” value is reported as 100. In assay [2], the “control value (Test 2)” value worked out at 100. Also, the “control value (Test 1)” value in assay [3] is reported as 100.
Turning to `CCCCS(=O)(=O)Oc1cccc2c1COC(c1csc(C3CCN(C(=O)Cn4nc(C(F)(F)F)cc4C(F)(F)F)CC3)n1)OC2` (stereo not drawn) [Compound 1-68], in assay [1], the “control value (Test 3)” value came to 100. For the same molecule, the “control value (Test 2)” value in assay [2] is 100. The “control value (Test 1)” value in assay [3] was determined as 100.
In the case of `Cc1cc(C(F)(F)F)nn1CC(=O)N1CCC(c2nc(C3OCc4cccc(C=NN(C)C)c4CO3)cs2)CC1` (stereo not drawn) [Compound 1-71], the “control value (Test 3)” value in assay [1] is recorded as 100. In addition, the “control value (Test 2)” value in assay [2] is 100. For the same molecule, the “control value (Test 1)” value in assay [3] was 100.
As for `O=C(Cn1nc(C(F)F)cc1C(F)F)N1CCC(c2nc(C3OCc4cccc(-c5ccccc5)c4CO3)cs2)CC1` (stereo not drawn) [Compound 1-73], the “control value (Test 3)” value in assay [1] came to 100. The “control value (Test 2)” value in assay [2] turned out to be 100. For the same molecule, in assay [3], the “control value (Test 1)” value was 90.
With `COc1ccc([N+](=O)[O-])c2c1COC(c1csc(C3CCN(C(=O)Cn4nc(C(F)F)cc4C(F)F)CC3)n1)OC2` (stereo not drawn) [Compound 1-74], the “control value (Test 3)” value in assay [1] is listed as 100. The “control value (Test 2)” value in assay [2] worked out at 100. Moreover, the “control value (Test 1)” value in assay [3] was 100.
`O=C(Cn1nc(C(F)F)cc1C(F)F)N1CCC(c2nc(C3OCc4ccccc4CO3)cs2)CC1` [Compound 1-76]: in assay [1], the “control value (Test 3)” value was determined as 100. Moreover, the “control value (Test 2)” value in assay [2] is 100. Further, in assay [3], the “control value (Test 1)” value is reported as 100.
Regarding `O=C(Cn1nc(C(F)F)cc1C(F)F)N1CCC(c2nc(C3OCc4cc5ccccc5cc4CO3)cs2)CC1` [Compound 1-77], in assay [1], the “control value (Test 3)” value is reported as 100. For the same molecule, in assay [2], the “control value (Test 2)” value is 100. Besides, the “control value (Test 1)” value in assay [3] was 100.
On to `O=C(Cn1nc(C(F)F)cc1C(F)F)N1CCC(c2nc(C3OCc4ccc(F)cc4CO3)cs2)CC1` (stereo not drawn) [Compound 1-80], for which the “control value (Test 3)” value in assay [1] came to 100. In assay [2], the “control value (Test 2)” value is recorded as 100. For the same molecule, the “control value (Test 1)” value in assay [3] came out at 100.
Turning to `O=C(Cn1nc(C(F)F)cc1C(F)F)N1CCC(c2nc(C3OCc4ccc(C(F)(F)F)cc4CO3)cs2)CC1` (stereo not drawn) [Compound 1-81], in assay [1], the “control value (Test 3)” value turned out to be 100. For the same molecule, the “control value (Test 2)” value in assay [2] is recorded as 100. In addition, the “control value (Test 1)” value in assay [3] was determined as 100.
With `COc1ccc(Br)c2c1COC(c1csc(C3CCN(C(=O)Cn4nc(C(F)(F)F)cc4C(F)(F)F)CC3)n1)OC2` (stereo not drawn) [Compound 1-82], in assay [1], the “control value (Test 3)” value stood at 100. For the same molecule, the “control value (Test 2)” value in assay [2] amounted to 100. In assay [3], the “control value (Test 1)” value was 100.
With `COc1ccc([N+](=O)[O-])c2c1COC(c1csc(C3CCN(C(=O)Cn4nc(C(F)(F)F)cc4C(F)(F)F)CC3)n1)OC2` (stereo not drawn) [Compound 1-83], the “control value (Test 3)” value in assay [1] was 100. For the same molecule, the “control value (Test 2)” value in assay [2] was 100. In addition, in assay [3], the “control value (Test 1)” value stood at 100.
Turning to `O=C(Cn1nc(C(F)(F)F)cc1C(F)(F)F)N1CCC(c2nc(C3OCc4ccccc4CO3)cs2)CC1` [Compound 1-85], the “control value (Test 3)” value in assay [1] was 100. In addition, the “control value (Test 2)” value in assay [2] is listed as 100. The “control value (Test 1)” value in assay [3] is recorded as 100.
With `COc1ccc(OC(F)(F)F)c2c1COC(c1csc(C3CCN(C(=O)Cn4nc(C(F)(F)F)cc4C)CC3)n1)OC2` (stereo not drawn) [Compound 1-86], in assay [1], the “control value (Test 3)” value was 100. For the same molecule, the “control value (Test 2)” value in assay [2] stood at 100. Also, the “control value (Test 1)” value in assay [3] is 100.
